The results in this text go back to ChEMBL document CHEMBL1157002, “SAR of a series of inhaled A(2A) agonists and comparison of inhaled pharmacokinetics in a preclinical model with clinical pharmacokinetic data” (Bioorg Med Chem Lett, 2009).

The source made the active and inactive calls. The calls are words filed in the database; no cut-off is given here.

One series concerns the target Adenosine receptor A2a (Homo sapiens, UniProt P29274).
The test system of series [1] is Cavia porcellus. Kind of series: Inhibition of capsaicin-induced bronchoconstriction in it dosed guinea pig up to 5 hrs. It is filed as functional, organism-based.
Series [2] has as its system Cavia porcellus. The series can be described thus: Toxicity in it dosed guinea pig assessed as decrease of diastolic blood pressure. It is filed as organism-based, Artery. As to conditions: in vivo, inhaled_or_intranasal.
Series [3] can be described thus: Intrinsic clearance in human liver microsomes. It is filed as ADME, Microsome. (Liver microsomes are vesicles of endoplasmic reticulum, rich in cytochrome P450 enzymes.)
Series [4] has as its system Rattus norvegicus. The series can be described thus: Unbound clearance in rat at 1 mg/kg, iv. The format is ADME, organism-based. Also noted: dose 1 mg/kg, route intravenous. The following applies: in vivo.
Series [5] is described as follows: Lipophilicity, log D at pH 7.4. The format is physicochemical. The following applies: buffer.
The test system of series [6] is Rattus norvegicus. The series can be described thus: Dose normalized fCmax in rat (dose normalized to 1 mg/kg). The following applies: in vivo. The arrangement: dose 1 mg/kg. The format is ADME, organism-based.
Series [7] relates to Homo sapiens. The series can be described thus: Dose normalized fCmax in human at 100 ug administered by aerosol device measured up to 4 hrs (dose normalized to 1 mg/kg). The format is ADME, organism-based. Also noted: dose 1 mg/kg. The following applies: in vivo.
In series [8] the test system is Homo sapiens. Kind of series: Dose normalized fCmax in human at 200 ug administered by aerosol device measured up to 4 hrs (dose normalized to 1 mg/kg). It is filed as ADME, organism-based. The arrangement: dose 1 mg/kg. As to conditions: in vivo.
The subject of series [9] is Homo sapiens. Kind of series: Dose normalized fCmax in human at 400 ug administered by aerosol device measured up to 4 hrs (dose normalized to 1 mg/kg). Also noted: dose 1 mg/kg. As to conditions: in vivo. The format is ADME, organism-based.
In series [10] the test system is Homo sapiens. The series can be described thus: Dose normalized fCmax in human at 800 ug administered by aerosol device measured up to 4 hrs (dose normalized to 1 mg/kg). It is filed as ADME, organism-based. The arrangement: dose 1 mg/kg. The following applies: in vivo.
In series [11] the test system is Homo sapiens. Kind of series: Dose normalized fCmax in human at 1600 ug administered by aerosol device measured up to 4 hrs (dose normalized to 1 mg/kg). The format is ADME, organism-based. Also noted: dose 1 mg/kg. As to conditions: in vivo.
A short description of series [12]: Half life in human at 100 to 1600 ug administered by aerosol device. It is filed as ADME, organism-based. As to conditions: in vivo, inhaled or intranasal.
The subject of series [13] is Homo sapiens. Kind of series: Toxicity in human assessed as increase of sitting blood pressure at 200 to 1600 ug administered by aerosol device. The format is organism-based. The following applies: in vivo, inhaled_or_intranasal.
For series [14], the species on record is Cavia porcellus. Kind of series: Inhibition of capsaicin-induced bronchoconstriction in guinea pig at 10 ug up to 8 hrs. It is filed as functional, organism-based.

Sequence of Adenosine receptor A2a (P29274 whole entry): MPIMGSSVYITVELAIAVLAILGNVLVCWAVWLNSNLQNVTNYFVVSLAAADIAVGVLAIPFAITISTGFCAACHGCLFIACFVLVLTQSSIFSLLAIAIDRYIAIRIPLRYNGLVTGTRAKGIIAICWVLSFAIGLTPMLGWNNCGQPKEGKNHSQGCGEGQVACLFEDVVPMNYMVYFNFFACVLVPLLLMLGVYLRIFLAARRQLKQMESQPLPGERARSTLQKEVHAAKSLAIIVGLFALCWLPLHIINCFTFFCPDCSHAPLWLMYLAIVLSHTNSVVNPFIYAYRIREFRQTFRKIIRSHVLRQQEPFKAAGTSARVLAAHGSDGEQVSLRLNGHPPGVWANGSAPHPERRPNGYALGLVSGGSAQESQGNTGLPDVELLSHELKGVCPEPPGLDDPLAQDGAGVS
Description for Adenosine receptor A2a: Agonist activity at adenosine A2A receptor in fMLP-stimulated human neutrophils assessed as inhibition of superoxide production by colorimetric analysis

Consider `CCNC(=O)[C@H]1O[C@@H](n2cnc3c(NCC(c4ccccc4)c4ccccc4)nc(C(=O)NCCNC(=O)NCCN(C(C)C)C4CCCC4)nc32)[C@H](O)[C@@H]1O`, for which the IC50 on Adenosine receptor A2a amounted to 7 nM.

In turn, `CCNC(=O)[C@H]1O[C@@H](n2cnc3c(NCC(c4ccccc4)c4ccccc4)nc(C(=O)NCCNC(=O)NCc4ccccn4)nc32)[C@H](O)[C@@H]1O` yielded an IC50 against Adenosine receptor A2a of 4 nM.

On Adenosine receptor A2a, `CCNC(=O)[C@H]1O[C@@H](n2cnc3c(NCC(c4ccccc4)c4ccccc4)nc(C(=O)NCCNC(=O)NCc4ccccc4)nc32)[C@H](O)[C@@H]1O` had an IC50 of 6 nM.

For `CCNC(=O)[C@H]1O[C@@H](n2cnc3c(NCC(c4ccccc4)c4ccccc4)nc(C(=O)NCCNC(=O)NCCN4CCCCC4)nc32)[C@H](O)[C@@H]1O`, the half-inhibitory concentration (IC50) on Adenosine receptor A2a was found to be 5 nM.

For the compound `CCNC(=O)[C@H]1O[C@@H](n2cnc3c(NCC(c4ccccc4)c4ccccc4)nc(CNC(=O)NCCN4CCCCC4)nc32)[C@H](O)[C@@H]1O`, the result with Cavia porcellus [1] was Active. Besides, the Activity result in the series with Cavia porcellus [2] was “Non-toxic”.

In turn, `CCNC(=O)[C@H]1O[C@@H](n2cnc3c(NCC(c4ccccc4)c4ccccc4)nc(C(=O)NCCNC(=O)NCCN4CCc5ccccc5C4)nc32)[C@H](O)[C@@H]1O` registered an IC50 against Adenosine receptor A2a of 10 nM.

Consider `CCNC(=O)[C@H]1O[C@@H](n2cnc3c(NCC(c4ccccc4)c4ccccc4)nc(C(=O)NCCNC(=O)NCCN(C(C)C)C(C)C)nc32)[C@H](O)[C@@H]1O`, for which, in series [3], the intrinsic clearance (microsomal CLint) was found to be 81 µL/min/mg. The CL free in the series with Rattus norvegicus [4] was 45 L/h/kg. Moreover, the logD in [5] amounted to 0.9. In the series on Rattus norvegicus [6], this compound had a Cmax_unbound of 12.3 nM. The same compound displayed an IC50 on Adenosine receptor A2a of 5 nM.

`CCNC(=O)[C@H]1O[C@@H](n2cnc3c(NCC(c4ccccc4)c4ccccc4)nc(C(=O)NCCNC(=O)NCCc4ccccc4)nc32)[C@H](O)[C@@H]1O` displayed an IC50 against Adenosine receptor A2a of 10 nM.

`CCNC(=O)[C@H]1O[C@@H](n2cnc3c(NCC(c4ccccc4)c4ccccc4)nc(C(=O)NCCNC(=O)NCc4ccc(C(=O)O)cc4)nc32)[C@H](O)[C@@H]1O` gave an IC50 on Adenosine receptor A2a of 0.4 nM.

As to `CCNC(=O)[C@H]1O[C@@H](n2cnc3c(NCC(c4ccccc4)c4ccccc4)nc(C(=O)NCCNC(=O)NCc4ccc(CN(CC)CC)cc4)nc32)[C@H](O)[C@@H]1O`, inhibition on Adenosine receptor A2a was half-maximal at 5 nM (IC50).

`CCNC(=O)[C@H]1O[C@@H](n2cnc3c(NCC(c4ccccc4)c4ccccc4)nc(CNC(=O)NCCN(C(C)C)C4CCCC4)nc32)[C@H](O)[C@@H]1O` had a CL free in the series with Rattus norvegicus [4] of 210 L/h/kg. In [5], this compound yielded a logD of 2. The Cmax_unbound with Rattus norvegicus [6] came out at 1.8 nM.

`CCNC(=O)[C@H]1O[C@@H](n2cnc3c(NCC(c4ccccc4)c4ccccc4)nc(C(=O)NCCNC(=O)NC4CCN(c5ccccn5)CC4)nc32)[C@H](O)[C@@H]1O` [UK432097]: in [3], the microsomal CLint is greater than 255 µL/min/mg. The compound further showed a CL free in the series with Rattus norvegicus [4] of 330 L/h/kg. In addition, the Cmax_unbound with Rattus norvegicus [6] turned out to be 0.2 nM; in the series with Homo sapiens [7] it was 0.45 nM; with Homo sapiens [8] it was 0.3 nM; in the series on Homo sapiens [9] it was 0.19 nM; in the series on Homo sapiens [10] it was 0.19 nM; in the series on Homo sapiens [11], 0.12 nM. For the same compound, the half-life in series [12] was 3 h. Further, the Activity entry in the series with Homo sapiens [13] is given as “Toxic”. For the same compound, the outcome in the series listed under Cavia porcellus [14] was Active.

Compound `CCNC(=O)[C@H]1O[C@@H](n2cnc3c(NCC(c4ccccc4)c4ccccc4)nc(C(=O)NCCN(C)C(=O)NCCN4CCCCC4)nc32)[C@H](O)[C@@H]1O` came in with an IC50 on Adenosine receptor A2a of 305 nM.

`O=C(NCCNC(=O)c1nc(NCC(c2ccccc2)c2ccccc2)c2ncn([C@@H]3O[C@H](CO)[C@@H](O)[C@H]3O)c2n1)NCCN1CCCCC1` yielded an IC50 on Adenosine receptor A2a of 45 nM.

What is called IC50 is the concentration that gives 50% inhibition. A low value points to greater potency in that assay. What is called microsomal CLint is the rate of metabolic loss divided by the concentration. High values mean rapid turnover, low ones slow turnover. Broadly, the logD is the decadic logarithm of the distribution of all forms, ionised or not, between an organic phase and buffer at a given pH. A low value points to lower lipophilicity. By half-life is commonly meant how long it takes for the measured level to halve. A higher half-life goes with slow decline.
